Test results reported in patent US20060069132A1, “Azolecarboxamide herbicides” (priority 2004, published 2006).

Experiments:
redroot pigweed = assay: Test A pre-/postemergence herbicide test; assay type: in vivo, Amaranthus retroflexus
Outline: (§1)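 Seeds sown in sandy loam received a preemergence directed soil spray of compound in non-phytotoxic solvent with surfactant; postemergence plants (2–10 cm, one- to two-leaf stage) were sprayed to runoff at the same time. After ~10 days in greenhouse, injury was rated visually versus untreated controls (0 = no effect, 100 = complete control).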

johnsongrass = assay: Test C pre-/postemergence herbicide test; assay type: in vivo, Sorghum halepense
Outline: (§2)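 Seeds were planted and sprayed preemergence with test chemicals in a non-phytotoxic solvent mixture containing surfactant; postemergence treatments went onto plants 2 to 18 cm tall (1- to 4-leaf stage). After 12 to 14 days in a greenhouse, injury was rated visually against untreated controls on a 0–100 scale.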

cocklebur = assay: Test C pre-/postemergence herbicide test; assay type: in vivo, Xanthium strumarium
Outline: as §2

velvetleaf = assay: Test A pre-/postemergence herbicide test; assay type: in vivo, Abutilon theophrasti
Outline: as §1

ducksalad = assay: Test C flooded paddy test; assay type: in vivo, Heteranthera limosa
yellow nutsedge = assay: Test C pre-/postemergence herbicide test; assay type: in vivo, Cyperus esculentus
Outline: as §2

barnyardgrass [1] = assay: Test C flooded paddy test; assay type: in vivo, Echinochloa crus-galli
Outline: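 Ratings (0 = no effect, 100 = complete control) come from visual comparison with untreated plants after 12 to 14 days in the greenhouse. Treatment was postemergence at the 1- to 4-leaf stage (2–18 cm), or at the 2-leaf stage for the flooded paddy barnyardgrass.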

barnyardgrass [2] = assay: Test A pre-/postemergence herbicide test; assay type: in vivo, Echinochloa crus-galli
Outline: as §1

Surinam grass = assay: Test C pre-/postemergence herbicide test; assay type: in vivo, Urochloa decumbens
Outline: as §2

giant foxtail [3] = assay: Test A pre-/postemergence herbicide test; assay type: in vivo, Setaria faberi
Outline: as §1

morningglory = assay: Test C pre-/postemergence herbicide test; assay type: in vivo, Ipomoea coccinea; parameters: key to Plant response rating, Morningglory: 0 = no effect, 100 = complete control
Outline: as §2

giant foxtail [4] = assay: Test C pre-/postemergence herbicide test; assay type: in vivo, Setaria faberi
Outline: as §2

[5] = Postemergence, 500 g ai/ha, 0 to 100 scale, 0 no effect, 100 complete control
[6] = Postemergence, 2000 g ai/ha, 0 to 100 scale, 0 no effect, 100 complete control
[7] = Preemergence, 500 g ai/ha, visual rating, 0 to 100 scale (0 no effect, 100 complete control)
[8] = Preemergence, 2000 g ai/ha, visual rating, 0 to 100 scale (0 no effect, 100 complete control)
[9] = Postemergence, 500 g ai/ha, scale 0 to 100
[10] = Postemergence, 250 g ai/ha, scale 0 to 100, 0 no effect, 100 complete control
[11] = postemergence, 125 g ai/ha, scale 0 to 100
[12] = postemergence, 62 g ai/ha, scale 0 to 100
[13] = 62 g ai/ha, scale 0 to 100 (0 no effect, 100 complete control)
[14] = 125 g ai/ha, scale of 0 to 100, 0 is no effect, 100 is complete control
[15] = 250 g ai/ha, scale of 0 to 100, 0 is no effect, 100 is complete control
[16] = 500 g ai/ha, visual rating after 12 to 14 days, scale 0 to 100 (0 no effect, 100 complete control)

**Q.** Which “Pigweed plant response rating” value (redroot pigweed; [5]) does the source give for `CC(=NO)c1cccc(NC(=O)c2cc(C(C)(C)C)nn2CC(F)(F)F)c1` [Compound 112] here?
**A.** 40

**Q.** What about the “Plant response rating, Pigweed” value (redroot pigweed; [6]) of the same compound?
**A.** 60

**Q.** What about the “Pigweed plant response rating” value (redroot pigweed; [7]) of the same compound?
**A.** 65

**Q.** What about the “Pigweed plant response rating” value (redroot pigweed; [8]) of the same compound?
**A.** 90

**Q.** What about the “Johnsongrass plant response rating” value (johnsongrass; [9]) of the same compound?
**A.** 60

**Q.** What about the “Plant response rating, Johnsongrass” value (johnsongrass; [10]) of the same compound?
**A.** 50

**Q.** And the “Plant response rating, Johnsongrass” value (johnsongrass; [11])?
**A.** 20

**Q.** What about the “Plant response rating, Johnsongrass” value (johnsongrass; [12]) of the same compound?
**A.** 20

**Q.** And the “Cocklebur plant response rating” value (cocklebur; [9])?
**A.** 70

**Q.** What about the “Plant response rating, Cocklebur” value (cocklebur; [10]) of the same compound?
**A.** 60

**Q.** And the “Plant response rating, Cocklebur” value (cocklebur; [11])?
**A.** 30

**Q.** And the “Plant response rating, Cocklebur” value (cocklebur; [12])?
**A.** 0

**Q.** What about the “Velvetleaf plant response rating” value (velvetleaf; [5]) of the same compound?
**A.** 25

**Q.** What about the “Plant response rating, Velvetleaf” value (velvetleaf; [6]) of the same compound?
**A.** 35

**Q.** And the “Velvetleaf plant response rating” value (velvetleaf; [7])?
**A.** 25

**Q.** And the “Velvetleaf plant response rating” value (velvetleaf; [8])?
**A.** 50

**Q.** What about the “Ducksalad plant response rating” value (ducksalad; [13]) of the same compound?
**A.** 0

**Q.** What about the “Ducksalad plant response rating” value (ducksalad; [14]) of the same compound?
**A.** 0

**Q.** What about the “Ducksalad plant response rating” value (ducksalad; [15]) of the same compound?
**A.** 0

**Q.** What about the “Plant response rating, Ducksalad” value (ducksalad; [16]) of the same compound?
**A.** 100

**Q.** What about the “Nutsedge, Yellow plant response rating” value (yellow nutsedge; [9]) of the same compound?
**A.** 20

**Q.** And the “Plant response rating, Nutsedge, Yellow” value (yellow nutsedge; [10])?
**A.** 20

**Q.** What about the “Plant response rating, Nutsedge, Yellow” value (yellow nutsedge; [11]) of the same compound?
**A.** 0

**Q.** And the “Plant response rating, Nutsedge, Yellow” value (yellow nutsedge; [12])?
**A.** 0

**Q.** And the “Barnyardgrass plant response rating” value (barnyardgrass [1]; [13])?
**A.** 0

**Q.** What about the “Barnyardgrass plant response rating” value (barnyardgrass [1]; [14]) of the same compound?
**A.** 0

**Q.** What about the “Barnyardgrass plant response rating” value (barnyardgrass [1]; [15]) of the same compound?
**A.** 10

**Q.** And the “Plant response rating, Barnyardgrass” value (barnyardgrass [1]; [16])?
**A.** 30

**Q.** And the “Barnyardgrass plant response rating” value (barnyardgrass [2]; [5])?
**A.** 35

**Q.** What about the “Plant response rating, Barnyardgrass” value (barnyardgrass [2]; [6]) of the same compound?
**A.** 45

**Q.** And the “Barnyardgrass plant response rating” value (barnyardgrass [2]; [7])?
**A.** 25

**Q.** What about the “Barnyardgrass plant response rating” value (barnyardgrass [2]; [8]) of the same compound?
**A.** 50

**Q.** And the “Surinam Grass plant response rating” value (Surinam grass; [9])?
**A.** 60

**Q.** And the “Plant response rating, Surinam Grass” value (Surinam grass; [10])?
**A.** 40

**Q.** And the “Plant response rating, Surinam Grass” value (Surinam grass; [11])?
**A.** 40

**Q.** And the “Plant response rating, Surinam Grass” value (Surinam grass; [12])?
**A.** 20

**Q.** And the “Foxtail, Giant plant response rating” value (giant foxtail [3]; [5])?
**A.** 20

**Q.** And the “Plant response rating, Foxtail, Giant” value (giant foxtail [3]; [6])?
**A.** 35

**Q.** What about the “Foxtail, Giant plant response rating” value (giant foxtail [3]; [7]) of the same compound?
**A.** 25

**Q.** And the “Foxtail, Giant plant response rating” value (giant foxtail [3]; [8])?
**A.** 50

**Q.** And the “Morningglory plant response rating” value (morningglory; [9])?
**A.** 100

**Q.** And the “Plant response rating, Morningglory” value (morningglory; [10])?
**A.** 70

**Q.** What about the “Plant response rating, Morningglory” value (morningglory; [11]) of the same compound?
**A.** 20

**Q.** What about the “Plant response rating, Morningglory” value (morningglory; [12]) of the same compound?
**A.** 0

**Q.** What about the “Foxtail, Giant plant response rating” value (giant foxtail [4]; [9]) of the same compound?
**A.** 50

**Q.** What about the “Plant response rating, Foxtail, Giant” value (giant foxtail [4]; [10]) of the same compound?
**A.** 50

**Q.** What about the “Plant response rating, Foxtail, Giant” value (giant foxtail [4]; [11]) of the same compound?
**A.** 50

**Q.** And the “Plant response rating, Foxtail, Giant” value (giant foxtail [4]; [12])?
**A.** 30
